Series [1] concerns MCF-7/ADR (doxorubicin-resistant human breast cancer cell line). To be noted: earlier compounds, ref 19 (4A93), 20 (6C44), cited from earlier work; for IC50: read-out: IC50 MCF-7/ADR (Figure 2).
Series [2] is described as follows: Solubility experiment (HPLC) in water/acetonitrile. It is filed as physicochemical. The following applies: in water/acetonitrile (table title). As to the method: Wavelength: 254 nm; flow rate: 1.0 mL/min; column temperature: 25 °C. Mobile phase: Phase A: water, Phase B: acetonitrile (Table 5).
Compounds were dissolved in chromatographic-grade acetonitrile and diluted to concentrations of 200, 100, 50, 25, 12.5, and 6.25 µg/mL. A standard curve was plotted using the peak area under the curve (AUC) versus concentration. […] The supernatant was filtered through an ultrafiltration membrane and then subjected to HPLC analysis. The solubility of the target compound was determined by substituting the AUC of the test compound into the standard curve. Each measurement was performed in triplicate.

The test system of series [3] is MCF-7/ADR (doxorubicin-resistant human breast cancer cell line). The series can be described thus: In vitro antiproliferative assay (MTT, 48 h), MCF-7/ADR. It is filed as cell-based. The following applies: for Selectivity Ratio IC50(MCF-7)/ IC50(MCF-7/ADR): collateral sensitivity; for IC50: Homo sapiens, NCI/ADR-RES, MTT, 48 h, mean of three determinations. The source says:
(§1) The MDA-MB-468 cell line was procured from the Cell Bank of the Chinese Academy of Sciences. The MCF-7, MCF-7/ADR, MCF-10A, and MDA-MB-231 cell lines were kindly provided by Professor Xianyi Sha (Fudan University, Shanghai, China). The HUVEC cells were kindly provided by Associate Professor Hulie Zeng (Fudan University, Shanghai, China). The MDA-MB-468, MDA-MB-231, MCF-7, MCF-10A, and HUVEC cells were cultivated in DMEM (Service Biotechnology, China) supplemented with 10% FBS (Capricorn Scientific, Germany) and 1% penicillin-streptomycin (Meilunbio, Dalian, China). For the MCF-7/ADR cells, they were cultured in RPMI-1640 (Service Biotechnology, Wuhan, China), containing 10% FBS and 1% penicillin-streptomycin. Additionally, 500 ng/mL of doxorubicin (Sigma-Aldrich, Saint Louis, MO, USA) was incorporated into the RPMI-1640 culture medium to keep drug resistance. All cell lines were cultured in a humidified incubator at 37 °C with a 5% CO2 atmosphere.
Following harvest during logarithmic growth, cells were plated in 96-well culture plates at an initial density of 5000 cells per well. Incubate the plate overnight at 37 °C to allow the cells to adhere. Following the overnight incubation, introduce the compound at the predetermined concentration into each well, and then return the plate to the incubator for an additional 48 h culture period. After the 48 h treatment, carefully aspirate the drug-containing medium from each well. Subsequently, add 150 μL of 0.5 mg/mL MTT (Beyotime, China) solution to each well. Protect the plate from light and incubate it at 37 °C for 4 h to allow the formation of formazan crystals. Finally, add 150 μL of DMSO (Sinopharm, China) to each well and gently mix to ensure complete dissolution of the formazan crystals. The OD value at 570nm was measured using a microplate reader (Thermo Fisher, Waltham, MA, USA). Cell proliferation inhibition was determined using the following formula:Inhibition (%) = [(ODDMSO − ODcompd.)/(ODDMSO − ODblank)] × 100
GraphPad Prism software 9 was used to calculate the IC50 values. The specific calculation process is as follows: Firstly, we input the experimental data into Prism. The data include the concentrations of the experimental compounds and the corresponding biological response values. For instance, in the cell experiment, we recorded the cell viability values at different drug concentrations. Subsequently, we select the option of “Dose–Response–Nonlinear Regression” in the “Analyze” menu for curve fitting. Generally speaking, we use the model of “[Inhibitor] vs. normalized response—Variable slope”. The Prism software fits the data through the nonlinear least squares method and finds the parameter values that can minimize the difference between the model’s predicted values and the actual data. After completing the curve fitting, the software will directly provide the estimated values and confidence intervals of the IC50 value and other relevant parameters. Meanwhile, it will also offer goodness-of-fit indices, such as the correlation coefficient, to evaluate the quality of the fitting. Through the above method, we can accurately calculate the IC50 value, thereby assessing the intensity of the inhibitory or activating effect of the compound on the biological system.

Series [4] deals with human normal mammary epithelial cell lines MCF-10A. The series can be described thus: Cytotoxicity in normal mammary epithelial cells (MTT). It is filed as cell-based. The following applies: normal mammary epithelial cell line.
From the text: as §1, with “Additionally, 500 ng/mL of doxorubicin (Sigma-Aldrich, Saint Louis, MO, USA) was incorporated into the RPMI-1640 culture medium to keep drug resistance. All cell lines were cultured in a humidified incubator at 37 °C with a 5% CO2 atmosphere.” left out
Following harvest during logarithmic growth, cells were plated in 96-well culture plates at an initial density of 5000 cells per well. […] The OD value at 570nm was measured using a microplate reader (Thermo Fisher, Waltham, MA, USA). Cell proliferation inhibition was determined using the following formula:Inhibition (%) = [(ODDMSO − ODcompd.)/(ODDMSO − ODblank)] × 100
GraphPad Prism software 9 was used to calculate the IC50 values. […] For instance, in the cell experiment, we recorded the cell viability values at different drug concentrations. […]

Series [5] concerns HUVEC (human umbilical vein endothelial cell lines). The series can be described thus: Cytotoxicity screen in HUVEC. In kind it is cell-based. To be noted: 500 nM concentration.
From the text: as §1
Following harvest during logarithmic growth, cells were plated in 96-well culture plates at an initial density of 5000 cells per well. Incubate the plate overnight at 37 °C to allow the cells to adhere. […] The OD value at 570nm was measured using a microplate reader (Thermo Fisher, Waltham, MA, USA). Cell proliferation inhibition was determined using the following formula:Inhibition (%) = [(ODDMSO − ODcompd.)/(ODDMSO − ODblank)] × 100 […]

Read-outs that look alike come from different tables or passages of the source.

Turning to `Cc1c(Cc2ccc(C(F)(F)F)cc2)c(=O)oc2cc(OCCOc3no[n+]([O-])c3S(=O)(=O)c3ccccc3)ccc12` [Compound 4A93], in series [1], the IC50 is 5 nM.

On to `COc1cc(OCCOc2no[n+]([O-])c2S(=O)(=O)c2ccccc2)ccc1C(=O)/C=C/c1ccccc1` [Compound 6C44], for which, in series [1], the “IC50(MCF-7)/IC50(MCF-7/ADR) (Figure 2)” value is recorded as 199.2 and the IC50 was 4.2 nM.

As to `COc1ccc(/C=C/C(=O)c2ccc(OCCCOc3no[n+]([O-])c3S(=O)(=O)c3ccccc3)cc2OC)cc1` [Compound 6d, (E)-4-(3-(3-methoxy-4-(3-(4-methoxyphenyl)acryloyl)phenoxy)propoxy)-3-(phenylsulfonyl)-1,2,5-oxadiazole 2-oxide], the Solubility in series [2] is 24.3 ± 2.5%. Moreover, the “Selectivity Ratio IC50(MCF-7)/ IC50(MCF-7/ADR)” value in series [3] was determined as 91.1. In series [4], the IC50 was 13400 nM.

Turning to `COc1cc(OCCOc2no[n+]([O-])c2S(=O)(=O)c2ccccc2)ccc1C(C)=O` [Compound 12a, 4-(2-(4-acetyl-3-methoxyphenoxy)ethoxy)-3-(phenylsulfonyl)-1,2,5-oxadiazole 2-oxide], in series [2], the Solubility stood at 67.9 ± 7.8%. In addition, the “Selectivity Ratio IC50(MCF-7)/ IC50(MCF-7/ADR)” value in series [3] was determined as 189.3. For the same compound, the “cell survival probability in HUVEC” value in series [5] is listed as “over 90%”.

Take `COc1cc(OCCOc2no[n+]([O-])c2S(=O)(=O)c2ccccc2)ccc1C(=O)NCc1ccc(F)cc1` [Compound 18b, 4-(2-(4-((4-fluorobenzyl)carbamoyl)-3-methoxyphenoxy)ethoxy)-3-(phenylsulfonyl)-1,2,5-oxadiazole 2-oxide]: the Solubility in series [2] was 60.9 ± 9.8%. The “Selectivity Ratio IC50(MCF-7)/ IC50(MCF-7/ADR)” value in series [3] is 101.7.

The compound `COc1cc(OCCOc2no[n+]([O-])c2S(=O)(=O)c2ccccc2)ccc1C(=O)NCc1ccc(C(F)(F)F)cc1` [Compound 18d, 4-(2-(3-methoxy-4-((4-(trifluoromethyl)benzyl)carbamoyl)phenoxy)ethoxy)-3-(phenylsulfonyl)-1,2,5-oxadiazole 2-oxide] showed a Solubility in series [2] of 26.2 ± 7.2%. In addition, in series [3], the IC50 was 6.56 nM and the “Selectivity Ratio IC50(MCF-7)/ IC50(MCF-7/ADR)” value was 163.0.

`COc1cc(OCCOc2no[n+]([O-])c2S(=O)(=O)c2ccccc2)ccc1C(=O)NCc1ccc(C#N)cc1` [Compound 18e, 4-(2-(4-((4-cyanobenzyl)carbamoyl)-3-methoxyphenoxy)ethoxy)-3-(phenylsulfonyl)-1,2,5-oxadiazole 2-oxide] returned a Solubility in series [2] of 44.7 ± 10.2%. In series [3], the IC50 was 19.9 nM and the “Selectivity Ratio IC50(MCF-7)/ IC50(MCF-7/ADR)” value stood at 235.0.

(Values after article PMC12156367, “Synthesis and Biological Evaluation of Seco-Coumarin/Furoxan Hybrids as Potent Anti-Tumor Agents to Overcome Multidrug Resistance via Multiple Mechanisms” (Molecules, 2025).)
